Results from patent EP4818157A1, “N-SUBSTITUTED CYCLIC AMIDE COMPOUND” (Kissei Pharmaceutical Co., Ltd., priority 2023, dated 2025).

molecular target: T1, human TSHR (Homo sapiens, UniProt P16473); test: Measurement of antagonist activity using TSH-induced cAMP production in human TSHR-stably expressing CHO cells; type: cell-based; details: human TSH final concentration 50 ng/mL
T1 construct: expressed in transfected cells
Description: Measurement of Antagonist Activity Using TSH-induced cAMP Production in Human TSHR-stably Expressing CHO Cells as an Indicator
A gene sequence of human TSHR (reference number NM_000369.2) was inserted into a multiple cloning site of pcDNA3.1(+). The prepared plasmid vector was introduced into CHO cells by a lipofection method to establish human TSHR stably expressing CHO cells. The obtained cells were seeded in a poly-D-lysine-coated 96-well plate at 5 x 10^4 cells/well, and cultured for 1 day in F12 medium containing 10% FBS, 400 µg/mL G418, 50 U/mL penicillin, and 50 µg/mL streptomycin under conditions of 37°C and 5% CO2. After removing a medium, the cells were washed twice with 100 µL per well of an assay buffer (Hanks' Balanced Salt Solution containing 20 mM HEPES and 1 mM IBMX). 30 µL of an assay buffer containing a test compound was added to a well, and the mixture was incubated at room temperature for 15 minutes. Next, 30 µL of an assay buffer containing human TSH (R&D Systems, Inc., final concentration 50 ng/mL) was added, and the mixture was incubated at 37°C for 1 hour. The supernatant was removed, and Lysis and Detection Buffer 2 (Cisbio) was added to prepare a cell lysate by incubating at room temperature for 1 hour. According to the instructions for use of a cAMP Gs HiRange kit (Cisbio), a cell lysate was reacted with d2-labeled cAMP and an anti-cAMP Europium Cryptate labeled antibody (Cisbio) in a 384-well white microplate. Next, a fluorescence intensity ratio (measurement wavelengths 665 nm/620 nm) was measured using a multiplate reader (PHERAstar FSX, BMG LABTECH Japan). A fluorescence intensity ratio of each sample was converted into a cAMP content using a standard curve. A cAMP content was converted into a percentage of a control value, and a cAMP production rate was calculated. Using Prism (Graph Pad Software Inc.), a cAMP production rate was plotted against a test compound concentration, and an IC50 value was calculated. The IC50 of each test compound is shown in the above tables. In the tables, IC50 < 3.0 µM was denoted as A, and 3.0 µM ≤ IC50 < 30 µM was denoted as B. The case where activity was observed but an IC50 value could not be calculated was denoted as C.

T1 sequence (P16473 21-764): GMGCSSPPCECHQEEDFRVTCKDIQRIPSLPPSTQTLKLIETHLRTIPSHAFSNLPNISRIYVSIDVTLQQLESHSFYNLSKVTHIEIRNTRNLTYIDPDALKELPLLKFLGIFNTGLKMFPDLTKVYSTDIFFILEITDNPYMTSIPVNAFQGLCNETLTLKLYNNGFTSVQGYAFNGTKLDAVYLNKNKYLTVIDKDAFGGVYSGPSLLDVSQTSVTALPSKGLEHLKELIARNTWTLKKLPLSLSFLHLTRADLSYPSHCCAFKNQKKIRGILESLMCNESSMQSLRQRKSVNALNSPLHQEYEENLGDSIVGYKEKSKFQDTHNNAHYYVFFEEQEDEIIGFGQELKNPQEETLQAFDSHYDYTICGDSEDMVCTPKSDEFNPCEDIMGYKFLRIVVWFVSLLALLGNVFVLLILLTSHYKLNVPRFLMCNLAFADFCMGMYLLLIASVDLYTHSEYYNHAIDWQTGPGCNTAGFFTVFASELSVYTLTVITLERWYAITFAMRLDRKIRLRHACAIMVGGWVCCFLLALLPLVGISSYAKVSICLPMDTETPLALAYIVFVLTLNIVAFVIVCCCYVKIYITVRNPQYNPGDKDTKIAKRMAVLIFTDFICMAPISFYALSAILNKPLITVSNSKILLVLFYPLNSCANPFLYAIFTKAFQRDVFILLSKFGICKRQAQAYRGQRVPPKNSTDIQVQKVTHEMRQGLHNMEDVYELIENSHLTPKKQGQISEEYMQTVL

`NC(=O)Nc1cc(Br)cn(Cc2cc(C(F)(F)F)ccc2F)c1=O` [Example B-1, 1-(5-bromo-1-(2-fluoro-5-(trifluoromethyl)benzyl)-2-oxo-1,2-dihydropyridin-3-yl)urea] and `NC(=O)Nc1cc(C(F)(F)F)cn(Cc2cc(C(F)(F)F)ccc2F)c1=O` [Example B-6, 1-(1-(2-fluoro-5-(trifluoromethyl)benzyl)-2-oxo-5-(trifluoromethyl)-1,2-dihydropyridin-3-yl)urea] cannot be ordered by IC50: less than 3 µM for the first, less than 3 µM for the second.

Going from `NC(=O)Nc1cc(CCC(=O)O)cn(Cc2cc(C(F)(F)F)ccc2F)c1=O` [Example B-2, 3-(1-(2-fluoro-5-(trifluoromethyl)benzyl)-6-oxo-5-ureido-1,6-dihydropyridin-3-yl)propanoic acid] to `CC(C)(C)OC(=O)NCCc1cc(NC(N)=O)c(=O)n(Cc2cc(C(F)(F)F)ccc2F)c1` [Example B-3, tert-butyl (2-(1-(2-fluoro-5-(trifluoromethyl)benzyl)-6-oxo-5-ureido-1,6-dihydropyridin-3-yl)ethyl)carbamate], the IC50 falls from greater than 30 µM to less than 3 µM. The second is the more potent here.

`Cc1ccc(NC(N)=O)c(=O)n1Cc1cc(C(F)(F)F)ccc1F` [Example B-4, 1-(1-(2-fluoro-5-(trifluoromethyl)benzyl)-6-methyl-2-oxo-1,2-dihydropyridin-3-yl)urea] and `N#Cc1ccc(NC(N)=O)c(=O)n1Cc1cc(C(F)(F)F)ccc1F` [Example B-7, 1-(6-cyano-1-(2-fluoro-5-(trifluoromethyl)benzyl)-2-oxo-1,2-dihydropyridin-3-yl)urea] cannot be ordered by IC50: less than 3 µM for the first, less than 3 µM for the second.

`Cc1ccc(NC(N)=O)c(=O)n1Cc1cc(C(F)(F)F)cc(Cl)c1F` [Example B-5, 1-(1-(3-chloro-2-fluoro-5-(trifluoromethyl)benzyl)-6-methyl-2-oxo-1,2-dihydropyridin-3-yl)urea] and `CNC(=O)Nc1ccc(C)n(Cc2cc(C(F)(F)F)cc(Cl)c2F)c1=O` [Example B-10, 1-(1-(3-chloro-2-fluoro-5-(trifluoromethyl)benzyl)-6-methyl-2-oxo-1,2-dihydropyridin-3-yl)-3-methylurea] cannot be ordered by IC50: less than 3 µM for the first, less than 3 µM for the second.

Compared with `Cc1ncc(NC(N)=O)c(=O)n1Cc1cc(C(F)(F)F)cc(Cl)c1F` [Example B-8, 1-(1-(3-chloro-2-fluoro-5-(trifluoromethyl)benzyl)-2-methyl-6-oxo-1,6-dihydropyrimidin-5-yl)urea], `Cc1cnc(NC(N)=O)c(=O)n1Cc1cc(C(F)(F)F)cc(Cl)c1F` [Example B-9, 1-(4-(3-chloro-2-fluoro-5-(trifluoromethyl)benzyl)-5-methyl-3-oxo-3,4-dihydropyrazin-2-yl)urea] is higher in IC50: less than 3 µM for the first, 3 to 30 µM for the second. The first is the more potent here.

`Cc1ccc(NC(=O)NC2CC2)c(=O)n1Cc1cc(C(F)(F)F)cc(Cl)c1F` [Example B-11, 1-(1-(3-chloro-2-fluoro-5-(trifluoromethyl)benzyl)-6-methyl-2-oxo-1,2-dihydropyridin-3-yl)-3-cyclopropylurea] and `NC(=O)N[C@@H]1Cc2ccc(C(F)F)cc2N(Cc2cc(C(F)(F)F)ccc2F)C1=O` [Example C-10, (R)-1-(7-(difluoromethyl)-1-(2-fluoro-5-(trifluoromethyl)benzyl)-2-oxo-1,2,3,4-tetrahydroquinolin-3-yl)urea] cannot be ordered by IC50: less than 3 µM for the first, less than 3 µM for the second.

Compared with `Cc1cccc(CN2C(=O)[C@H](NC(N)=O)Cc3ccccc32)c1` [Example C-1, (R)-1-(1-(3-methylbenzyl)-2-oxo-1,2,3,4-tetrahydroquinolin-3-yl)urea], `COc1cccc(CN2C(=O)[C@H](NC(N)=O)Cc3ccccc32)c1` [Example C-3, (R)-1-(1-(3-methoxybenzyl)-2-oxo-1,2,3,4-tetrahydroquinolin-3-yl)urea] is higher in IC50: 3 to 30 µM for the first, greater than 30 µM for the second. The first is the more potent here.

Compared with `N#Cc1cccc(CN2C(=O)[C@H](NC(N)=O)Cc3ccccc32)c1` [Example C-2, (R)-1-(1-(3-cyanobenzyl)-2-oxo-1,2,3,4-tetrahydroquinolin-3-yl)urea], `N#Cc1ccc2c(c1)N(Cc1cccc(C(F)(F)F)c1)C(=O)[C@H](NC(N)=O)C2` [Example C-8, (R)-1-(7-cyano-2-oxo-1-(3-(trifluoromethyl)benzyl)-1,2,3,4-tetrahydroquinolin-3-yl)urea] is lower in IC50: greater than 30 µM for the first, 3 to 30 µM for the second. The second is the more potent here.

`NC(=O)N[C@@H]1Cc2ccccc2N(Cc2cc(C(F)F)ccc2F)C1=O` [Example C-4, (R)-1-(1-(5-(difluoromethyl)-2-fluorobenzyl)-2-oxo-1,2,3,4-tetrahydroquinolin-3-yl)urea] and `NC(=O)N[C@@H]1Cc2ccc(F)cc2N(Cc2cc(C(F)F)ccc2F)C1=O` [Example C-11, (R)-1-(1-(5-(difluoromethyl)-2-fluorobenzyl)-7-fluoro-2-oxo-1,2,3,4-tetrahydroquinolin-3-yl)urea] cannot be ordered by IC50: less than 3 µM for the first, less than 3 µM for the second.

`NC(=O)N[C@@H]1Cc2ccccc2N(Cc2cccc3c2OC(F)(F)O3)C1=O` [Example C-5, (R)-1-(1-((2,2-difluorobenzo[d][1,3]dioxol-4-yl)methyl)-2-oxo-1,2,3,4-tetrahydroquinolin-3-yl)urea] and `Cc1ccc2c(c1)N(Cc1cccc(C(F)(F)F)c1)C(=O)[C@H](NC(N)=O)C2` [Example C-6, (R)-1-(7-methyl-2-oxo-1-(3-(trifluoromethyl)benzyl)-1,2,3,4-tetrahydroquinolin-3-yl)urea] cannot be ordered by IC50: less than 3 µM for the first, less than 3 µM for the second.

`COc1ccc2c(c1)N(Cc1cccc(C(F)(F)F)c1)C(=O)[C@H](NC(N)=O)C2` [Example C-7, (R)-1-(7-methoxy-2-oxo-1-(3-(trifluoromethyl)benzyl)-1,2,3,4-tetrahydroquinolin-3-yl)urea] and `NC(=O)N[C@@H]1Cc2ccc(C(F)(F)F)cc2N(Cc2cc(C(F)F)ccc2F)C1=O` [Example C-15, (R)-1-(1-(5-(difluoromethyl)-2-fluorobenzyl)-2-oxo-7-(trifluoromethyl)-1,2,3,4-tetrahydroquinolin-3-yl)urea] cannot be ordered by IC50: less than 3 µM for the first, less than 3 µM for the second.

`NC(=O)N[C@@H]1Cc2c(F)cccc2N(Cc2cc(C(F)(F)F)ccc2F)C1=O` [Example C-9, (R)-1-(5-fluoro-1-(2-fluoro-5-(trifluoromethyl)benzyl)-2-oxo-1,2,3,4-tetrahydroquinolin-3-yl)urea] and `NC(=O)N[C@@H]1Cc2c(F)cc(F)cc2N(Cc2cc(C(F)F)ccc2F)C1=O` [Example C-17, (R)-1-(1-(5-(difluoromethyl)-2-fluorobenzyl)-5,7-difluoro-2-oxo-1,2,3,4-tetrahydroquinolin-3-yl)urea] cannot be ordered by IC50: less than 3 µM for the first, less than 3 µM for the second.

`NC(=O)N[C@@H]1Cc2ccc(Cl)cc2N(Cc2cc(C(F)F)ccc2F)C1=O` [Example C-12, (R)-1-(7-chloro-1-(5-(difluoromethyl)-2-fluorobenzyl)-2-oxo-1,2,3,4-tetrahydroquinolin-3-yl)urea] and `Cc1ccc2c(c1)N(Cc1cc(C(F)F)ccc1F)C(=O)[C@H](NC(N)=O)C2` [Example C-13, (R)-1-(1-(5-(difluoromethyl)-2-fluorobenzyl)-7-methyl-2-oxo-1,2,3,4-tetrahydroquinolin-3-yl)urea] cannot be ordered by IC50: less than 3 µM for the first, less than 3 µM for the second.

`NC(=O)N[C@@H]1Cc2ccc(C(F)F)cc2N(Cc2cc(C(F)F)ccc2F)C1=O` [Example C-14, (R)-1-(7-(difluoromethyl)-1-(5-(difluoromethyl)-2-fluorobenzyl)-2-oxo-1,2,3,4-tetrahydroquinolin-3-yl)urea] and `NC(=O)N[C@@H]1Cc2ccc(CO)cc2N(Cc2cc(C(F)F)ccc2F)C1=O` [Example C-16, (R)-1-(1-(5-(difluoromethyl)-2-fluorobenzyl)-7-(hydroxymethyl)-2-oxo-1,2,3,4-tetrahydroquinolin-3-yl)urea] cannot be ordered by IC50: less than 3 µM for the first, less than 3 µM for the second.
